Data: patent US4730005A, “Leukotriene antagonist” (SmithKline Beckman Corporation, priority 1986, dated 1988)

Experiments:
[1] = target: T1, leukotriene D4 (LTD4) induced contraction of guinea pig tracheal tissues (Cavia porcellus, UniProt Q2NNR5); test: in vitro inhibition of LTD4 induced contraction of guinea pig tracheal spiral strips; assay type: cell-based, guinea pig (adult male albino Hartley strain); settings: guinea pig trachea, LTD4 agonist, 30 min pretreatment with test compound
T1 construct: Guinea pig (adult male albino Hartley strain) tracheal spiral strips; from tissue; host or cells: guinea pig trachea (spiral strips, adult male albino Hartley strain)
T1 sequence (Q2NNR5 1-340): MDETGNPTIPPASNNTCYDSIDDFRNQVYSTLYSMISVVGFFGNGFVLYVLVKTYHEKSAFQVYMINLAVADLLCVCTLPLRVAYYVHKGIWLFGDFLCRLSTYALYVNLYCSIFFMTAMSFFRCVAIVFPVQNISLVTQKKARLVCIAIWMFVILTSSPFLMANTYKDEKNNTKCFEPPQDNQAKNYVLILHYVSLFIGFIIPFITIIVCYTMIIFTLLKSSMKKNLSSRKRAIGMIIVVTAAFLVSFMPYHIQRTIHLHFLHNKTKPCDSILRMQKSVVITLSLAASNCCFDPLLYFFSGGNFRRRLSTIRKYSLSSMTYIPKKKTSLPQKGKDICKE
Description: The leukotriene antagonist activity of the compounds of this invention is measured by the ability of the compounds to inhibit the leukotriene induced contraction of guinea pig tracheal tissues in vitro and to inhibit leukotriene induced bronchoconstriction in guinea pigs in vivo. The following methodologies were employed: In vitro: Guinea pig (adult male albino Hartley strain) tracheal spiral strips of approximate dimensions 2 to 3 mm cross-sectional width and 3.5 cm length were bathed in modified Krebs buffer in jacketed 10 ml tissue bath and continously aerated with 95% 02 /5% CO2. The tissues were connected via silk suture to force displacement transducers for recording isometric tension. The tissues were equilibrated for 1 hr., pretreated for 15 minutes with meclofenamic acid (1 μM) to remove intrinsic prostaglandin responses, and then pretreated for an additional 30 minutes with either the test compound or vehicle control. A cumulative concentration-response curve for LTD4 on triplicate tissues was generated by successive increases in the bath concentration of the LTD4. In order to minimize intertissue variability, the contractions elicited by LTD4 were standardized as a percentage of the maximum response obtained to a reference agonist, carbachol (10 μM). Calculations: The averages of the triplicate LTD4 concentration-response curves both in the presence and absence of the test compound were plotted on log graph paper. The concentration of LTD4 needed to elicit 30% of the contraction elicited by carbachol was measured and defined as the EC30. The -log KB value for the test compound was determined by the following equations: [formula] In vivo: Anesthetized, spontaneously breathing guinea pigs (Adult male albino Hartley strain) were monitored on a Buxco pulmonary mechanics computer. Changes in airway resistance (RL) were calculated by the computer on a breath-by-breath basis at isovolumic points from signals measuring airflow and transpulmonary pressure using differential pressure transducers. Animals received either test compound or vehicle control intravenously via the jugular vein. LTD4 was then injected into the jugular vein. The bronchoconstriction produced was reflected by % changes in airways resistance relative to the baseline values obtained prior to injection of the test compound or vehicle control. Each guinea pig received either vehicle control or test compound.

[2] = test system: arachidonic acid-induced inflammation in mice; test: arachidonic acid-induced inflammation in mice; assay type: in vivo
[3] = test system: LTD4 induced bronchoconstriction in guinea pigs; test: in vivo inhibition of LTD4 induced bronchoconstriction (airway resistance RL) in guinea pigs; parameters: species or system guinea pig (adult male albino Hartley strain); settings: intravenous
Description: The leukotriene antagonist activity of the compounds of this invention is measured by the ability of the compounds to inhibit the leukotriene induced contraction of guinea pig tracheal tissues in vitro and to inhibit leukotriene induced bronchoconstriction in guinea pigs in vivo. The following methodologies were employed: In vitro: Guinea pig (adult male albino Hartley strain) tracheal spiral strips of approximate dimensions 2 to 3 mm cross-sectional width and 3.5 cm length were bathed in modified Krebs buffer in jacketed 10 ml tissue bath and continously aerated with 95% 02 /5% CO2. The tissues were connected via silk suture to force displacement transducers for recording isometric tension. The tissues were equilibrated for 1 hr., pretreated for 15 minutes with meclofenamic acid (1 μM) to remove intrinsic prostaglandin responses, and then pretreated for an additional 30 minutes with either the test compound or vehicle control. A cumulative concentration-response curve for LTD4 on triplicate tissues was generated by successive increases in the bath concentration of the LTD4. In order to minimize intertissue variability, the contractions elicited by LTD4 were standardized as a percentage of the maximum response obtained to a reference agonist, carbachol (10 μM).
Calculations: The averages of the triplicate LTD4 concentration-response curves both in the presence and absence of the test compound were plotted on log graph paper. The concentration of LTD4 needed to elicit 30% of the contraction elicited by carbachol was measured and defined as the EC30. The -log KB value for the test compound was determined by the following equations: [formula] In vivo: Anesthetized, spontaneously breathing guinea pigs (Adult male albino Hartley strain) were monitored on a Buxco pulmonary mechanics computer. Changes in airway resistance (RL) were calculated by the computer on a breath-by-breath basis at isovolumic points from signals measuring airflow and transpulmonary pressure using differential pressure transducers. Animals received either test compound or vehicle control intravenously via the jugular vein. LTD4 was then injected into the jugular vein. The bronchoconstriction produced was reflected by % changes in airways resistance relative to the baseline values obtained prior to injection of the test compound or vehicle control. Each guinea pig received either vehicle control or test compound.
Calculations: The average of 3-6 animals per treatment was calculated using the % changes in the pulmonary parameters for control and test compound-treated animals. The average % inhibition by the test compound was calculated from the following equation: [formula]

[4] = test system: carrageenan peritonitis in mice; test: carrageenan peritonitis in mice; assay type: in vivo; settings: oral administration at 100 mg/kg

Kb [1]	Structure (SMILES)	ED50 ([2]; Mus musculus, oral)	anti-inflammatory activity ([2]; oral administration)	anti-inflammatory activity ([2]; subcutaneous administration)	anti-inflammatory activity ([2]; topical administration)	% Inhibition of RL ([3]; (1) 5 mg/kg)	% Inhibition of RL ([3]; (2) 5 mg/kg)	activity against carrageenan peritonitis [4]	% Inhibition of RL ([3]; 5 mg/kg)
316 nM	O=C(O)CCSC(SCCC(=O)O)c1ccccc1CCCCCCCCc1ccccc1 [2 2 C8 H16 phenyl H, 4,6-Dithia-5-[2-(8-phenyloctyl)phenyl]nonanedioic acid]	105 mg/kg	demonstrated anti-inflammatory activity	demonstrated anti-inflammatory activity	demonstrated anti-inflammatory activity	100%	95.3%	demonstrated activity	–
631 nM	O=C(O)CCSC(SCCC(=O)O)c1ccccc1CCCCCCCCCCCC(F)(F)F [2 2 C11 H22 CF3 H, 4,6-Dithia-5-[2-(12,12,12-trifluorododecyl)phenyl]nonanedioic acid]	–	–	–	–	–	–	–	30.4%
